Among the data in patent US8129371B2, “Thienopyrimidine and pyrazolopyrimidine compounds and their use as mTOR kinase and PI3 kinase inhibitors” (Wyeth LLC, priority 2007, dated 2012) are IC50 values, retold here.

Where two headings read alike, the source gives them in different places.

The test system of one assay is prostate line LNCap. Description: In vitro cell culture growth assay (MTS), LNCap. It counts as cell-based. As to conditions: Homo sapiens, LNCaP, 72 h, LNCap cells, three days after drug treatment. In short, it runs like this:
(§1)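 The readout was MTS dye metabolism at 490 nm, taken after 3-day drug exposure that began the day after seeding. Growth was expressed as percent of vehicle-treated wells in the same plate.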

A further assay deals with breast line MDA468. Description: In vitro cell culture growth assay (MTS), MDA468. It counts as cell-based. Particulars: Homo sapiens, 72 h, MDA468 cells, three days after drug treatment. In short, it runs like this: as §1
The target of assay [1] is T1, PI3K (Homo sapiens, UniProt P48736).
T1 construct: PI3 Kinase γ IC50; other: PI3 Kinase γ; other: PI3 Kinase γ isoform, fluorescence polarization
Description: Fluorescence polarization assay for PI3K. As to conditions: read-out: PI3 Kinase γ IC50. It counts as biochemical. In short, it runs like this: (§2)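 PI3K was preincubated with compound (final DMSO 1%), and the reaction was started with PIP2/ATP substrate and run 30–60 min. It was stopped with a detector mix giving 10 nM red probe and 70 nM GST-GRP.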

Assay [2] has as its target T2, PI3K (Homo sapiens, UniProt P42336).
T2 construct: PI3 Kinase α IC50; other: PI3 Kinase α; other: PI3 Kinase α isoform, fluorescence polarization
Nature of the assay: Fluorescence polarization assay for PI3K. It counts as biochemical. Particulars: read-out: PI3 Kinase α IC50. In short, it runs like this: as §2
For orientation: Polarisation of emitted light reports the rotation of a fluorescent probe.

Another assay has as its target T3, Human mTOR (FLAG-TOR) (Homo sapiens, UniProt P42345).
T3 construct: FLAG
Nature of the assay: Human mTOR kinase assay with purified enzyme, DELFIA format. It counts as biochemical. In short, it runs like this: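 Purified FLAG-mTOR in HEPES pH 7.4 buffer with 10 mM MnCl2 was preincubated with inhibitor and reacted 2 h at room temperature with His6-S6K substrate, then stopped with EDTA/EGTA. Phospho-T389 S6K detected by DELFIA with Eu-labelled antibody (40 ng/mL) after plate capture; inhibition computed from signal.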

Setting [3] is: PI3 Kinase γ isoform, fluorescence polarization.
Where [4] appears, read: PI3 Kinase α isoform, fluorescence polarization.
[5] abbreviates: purified human mTOR enzyme, DELFIA format.

T1 sequence (P48736 whole entry, canonical isoform): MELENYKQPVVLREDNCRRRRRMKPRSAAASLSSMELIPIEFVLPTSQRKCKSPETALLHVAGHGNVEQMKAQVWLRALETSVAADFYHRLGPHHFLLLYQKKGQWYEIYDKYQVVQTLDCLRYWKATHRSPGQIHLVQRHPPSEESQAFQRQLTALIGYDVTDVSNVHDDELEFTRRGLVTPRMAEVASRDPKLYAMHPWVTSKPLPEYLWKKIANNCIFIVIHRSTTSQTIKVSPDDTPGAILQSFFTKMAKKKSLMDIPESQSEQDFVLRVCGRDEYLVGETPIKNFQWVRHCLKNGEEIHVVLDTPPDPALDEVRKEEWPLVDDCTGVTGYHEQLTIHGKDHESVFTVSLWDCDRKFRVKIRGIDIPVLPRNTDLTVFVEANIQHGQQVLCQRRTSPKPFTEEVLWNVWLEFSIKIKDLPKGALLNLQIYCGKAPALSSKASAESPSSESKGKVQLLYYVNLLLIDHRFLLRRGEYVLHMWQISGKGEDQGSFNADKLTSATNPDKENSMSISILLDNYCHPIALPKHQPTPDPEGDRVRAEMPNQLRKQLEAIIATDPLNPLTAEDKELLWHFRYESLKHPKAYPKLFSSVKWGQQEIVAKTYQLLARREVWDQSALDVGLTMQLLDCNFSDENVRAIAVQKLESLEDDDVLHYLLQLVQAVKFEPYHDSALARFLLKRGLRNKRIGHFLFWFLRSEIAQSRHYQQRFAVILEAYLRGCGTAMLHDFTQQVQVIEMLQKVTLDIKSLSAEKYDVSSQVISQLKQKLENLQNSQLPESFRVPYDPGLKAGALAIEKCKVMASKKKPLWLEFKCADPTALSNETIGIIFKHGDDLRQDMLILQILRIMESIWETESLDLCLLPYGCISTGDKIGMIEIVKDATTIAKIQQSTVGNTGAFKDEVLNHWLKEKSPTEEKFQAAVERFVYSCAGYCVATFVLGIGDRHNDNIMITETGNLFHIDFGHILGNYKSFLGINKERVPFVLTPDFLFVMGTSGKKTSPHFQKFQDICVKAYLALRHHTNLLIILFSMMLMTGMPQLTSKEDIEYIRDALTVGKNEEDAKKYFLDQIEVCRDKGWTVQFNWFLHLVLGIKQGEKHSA
T2 sequence (P42336 whole entry, canonical isoform): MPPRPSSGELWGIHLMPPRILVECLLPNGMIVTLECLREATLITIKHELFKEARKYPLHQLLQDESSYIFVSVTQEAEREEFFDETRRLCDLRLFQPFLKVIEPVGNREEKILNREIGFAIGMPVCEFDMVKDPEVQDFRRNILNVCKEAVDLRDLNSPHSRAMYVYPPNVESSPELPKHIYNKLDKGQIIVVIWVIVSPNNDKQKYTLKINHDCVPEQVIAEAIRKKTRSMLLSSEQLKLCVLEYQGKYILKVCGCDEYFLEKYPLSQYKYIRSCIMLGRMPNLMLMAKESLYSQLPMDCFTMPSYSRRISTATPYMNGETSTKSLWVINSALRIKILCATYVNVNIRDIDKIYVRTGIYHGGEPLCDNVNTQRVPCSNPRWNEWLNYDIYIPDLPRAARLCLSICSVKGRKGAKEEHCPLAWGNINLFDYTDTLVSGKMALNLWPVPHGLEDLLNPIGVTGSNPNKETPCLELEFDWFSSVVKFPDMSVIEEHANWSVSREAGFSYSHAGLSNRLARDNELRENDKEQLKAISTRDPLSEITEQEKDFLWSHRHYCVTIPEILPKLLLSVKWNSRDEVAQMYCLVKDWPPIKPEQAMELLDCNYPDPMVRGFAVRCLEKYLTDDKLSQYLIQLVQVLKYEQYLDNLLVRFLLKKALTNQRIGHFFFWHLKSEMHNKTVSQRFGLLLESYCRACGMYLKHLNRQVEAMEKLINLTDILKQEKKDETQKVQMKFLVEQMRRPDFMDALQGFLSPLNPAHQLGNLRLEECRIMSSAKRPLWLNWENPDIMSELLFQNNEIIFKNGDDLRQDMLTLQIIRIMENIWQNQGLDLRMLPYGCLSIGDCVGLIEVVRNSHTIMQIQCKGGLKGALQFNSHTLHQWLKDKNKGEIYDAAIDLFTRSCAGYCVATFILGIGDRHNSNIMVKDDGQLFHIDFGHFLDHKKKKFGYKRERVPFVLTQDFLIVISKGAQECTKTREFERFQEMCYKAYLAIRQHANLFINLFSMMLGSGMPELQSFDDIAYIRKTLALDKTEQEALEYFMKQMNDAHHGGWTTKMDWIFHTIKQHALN

As a reminder, the IC50 is the concentration that inhibits the measured activity by half. Turning to `CNC(=O)Nc1ccc(-c2nc(N3CC4CCC(C3)O4)c3cnn(C4COCOC4)c3n2)cc1` [Example 385, 1-{4-[1-(1,3-dioxan-5-yl)-4-(8-oxa-3-azabicyclo[3.2.1]oct-3-yl)-1H-pyrazolo[3,4-d]pyrimidin-6-yl]phenyl}-3-methylurea], the IC50 with prostate line LNCap is 1000 nM; with breast line MDA468, 4700 nM; on PI3K [1] (setting [3]), over 10000 nM; at PI3K [2] (setting [4]), 4030 nM; at Human mTOR (FLAG-TOR) (setting [5]), 9.95 nM.
As to `COC(=O)Nc1ccc(-c2nc(N3CC4CCC(C3)O4)c3cnn(C(C)(C)C)c3n2)cc1` [Example 92], the IC50 was 1800 nM in the assay on prostate line LNCap; 30000 nM with breast line MDA468; over 10000 nM on PI3K [1] (PI3 Kinase γ); over 10000 nM at PI3K [2] (PI3 Kinase α); 11.7 nM against Human mTOR (FLAG-TOR).
For the molecule `CCn1ncc2c(N3CC4CCC(C3)O4)nc(-c3ccc(NC(=O)Nc4ccncc4)cc3)nc21` [Example 48, 1-{4-[1-ethyl-4-(8-oxa-3-azabicyclo[3.2.1]oct-3-yl)-1H-pyrazolo[3,4-d]pyrimidin-6-yl]phenyl}-3-pyridin-4-ylurea], the IC50 was under 0.8 nM in the assay with prostate line LNCap; under 0.8 nM with breast line MDA468; 1120 nM at PI3K [1] (PI3 Kinase γ); 134 nM on PI3K [2] (PI3 Kinase α); 0.16 nM on Human mTOR (FLAG-TOR).
With `CC(C)(C)OC(=O)N1CCC(n2ncc3c(N4CC5CCC(C4)O5)nc(-c4ccc(NC(=O)Nc5ccccc5)cc4)nc32)CC1` [Example 23, tert-butyl 4-[4-(8-oxa-3-azabicyclo[3.2.1]oct-3-yl)-6-{4-[(phenylcarbamoyl)amino]phenyl}-1H-pyrazolo[3,4-d]pyrimidin-1-yl]piperidine-1-carboxylate], the IC50 in the assay with prostate line LNCap is 40 nM; with breast line MDA468, 180 nM; on PI3K [1] (PI3 Kinase γ), over 10000 nM; at PI3K [2] (PI3 Kinase α), 888 nM; on Human mTOR (FLAG-TOR), 0.7 nM.
For `O=C(Nc1ccc(-c2nc(N3C4CCC3COC4)c3cnn(CC(F)(F)F)c3n2)cc1)NC1CC1` [Example 271, 1-cyclopropyl-3-{4-[4-(3-oxa-8-azabicyclo[3.2.1]oct-8-yl)-1-(2,2,2-trifluoroethyl)-1H-pyrazolo[3,4-d]pyrimidin-6-yl]phenyl}urea] the same measures were 7 nM, 80 nM, 9000 nM, 3680 nM and 0.355 nM.
As to `Cn1ncc2c(N3CC4CCC(C3)O4)nc(-c3ccc(NC(=O)Nc4ccc(N5CCOCC5)nc4)cc3)nc21` [Example 237, 1-{4-[1-methyl-4-(8-oxa-3-azabicyclo[3.2.1]oct-3-yl)-1H-pyrazolo[3,4-d]pyrimidin-6-yl]phenyl}-3-(6-morpholin-4-ylpyridin-3-yl)urea], the IC50 with prostate line LNCap was 7 nM; in the assay on breast line MDA468 it was 52 nM; on PI3K [1] (PI3 Kinase γ), over 10000 nM; at PI3K [2] (PI3 Kinase α), 1350 nM; against Human mTOR (FLAG-TOR) it was 0.37 nM.
Turning to `CNC(=O)Nc1ccc(-c2nc(N3CC4CCC(C3)O4)c3cnn(C(C)(C)C)c3n2)cc1` [Example 93], the IC50 was 23 nM with prostate line LNCap; 170 nM in the assay on breast line MDA468; over 10000 nM at PI3K [1] (PI3 Kinase γ); 202 nM at PI3K [2] (PI3 Kinase α); 0.41 nM on Human mTOR (FLAG-TOR).
For `CNC(=O)Nc1ccc(-c2nc(N3CC4CCC(C3)O4)c3cnn(C4CCC(NN(C)C)CC4)c3n2)cc1` (stereo not drawn) [Example 333, 1-(4-{1-[4-(2,2-dimethylhydrazino)cyclohexyl]-4-(8-oxa-3-azabicyclo[3.2.1]oct-3-yl)-1H-pyrazolo[3,4-d]pyrimidin-6-yl}phenyl)-3-methylurea], the IC50 stood at 68 nM in the assay with prostate line LNCap; 380 nM with breast line MDA468; 4590 nM on PI3K [1] (setting [3]); 276 nM at PI3K [2] (setting [4]); 0.58 nM at Human mTOR (FLAG-TOR) (setting [5]).
As to `COCC(COC)n1ncc2c(N3CC4CCC(C3)O4)nc(-c3ccc(NC(=O)OC)cc3)nc21` [Example 328, methyl (4-{1-[2-methoxy-1-(methoxymethyl)ethyl]-4-(8-oxa-3-azabicyclo[3.2.1]oct-3-yl)-1H-pyrazolo[3,4-d]pyrimidin-6-yl}phenyl)carbamate], the IC50 was 2350 nM in the assay on prostate line LNCap; 9200 nM with breast line MDA468; over 10000 nM at PI3K [1] (setting [3]); 5770 nM at PI3K [2] (setting [4]); 125 nM against Human mTOR (FLAG-TOR) (setting [5]).
